Assay results: article PMC10746543, “Design principles for cyclin K molecular glue degraders” (Nature Chemical Biology, 2023)
Several values for one entry are separate records, joined by “and”; a condition that tells them apart may be missing. Equal values may be shown once. Read-outs that look alike come from different tables or passages of the source.

Tests used:
[1] = target: T1, CDK12–cyclin K and DDB1 (Homo sapiens, UniProt Q16531+Q9NYV4, K965R); test: TR-FRET ternary complex formation assay (compound titration); assay type: binding
T1 construct: His6–CDK12 (a.a. 713–1,052); full-length or beta-propeller B domain deletion (ΔBPB: a.a. 396–705 deleted) constructs of His6–DDB1ΔBPB, StrepII–Avi–DDB1, or His6–Spy–DDB1; made in house; host or cells: Trichoplusia ni High Five insect cells (baculovirus)
T1 sequence (Q9NYV4 713-1052 K965R): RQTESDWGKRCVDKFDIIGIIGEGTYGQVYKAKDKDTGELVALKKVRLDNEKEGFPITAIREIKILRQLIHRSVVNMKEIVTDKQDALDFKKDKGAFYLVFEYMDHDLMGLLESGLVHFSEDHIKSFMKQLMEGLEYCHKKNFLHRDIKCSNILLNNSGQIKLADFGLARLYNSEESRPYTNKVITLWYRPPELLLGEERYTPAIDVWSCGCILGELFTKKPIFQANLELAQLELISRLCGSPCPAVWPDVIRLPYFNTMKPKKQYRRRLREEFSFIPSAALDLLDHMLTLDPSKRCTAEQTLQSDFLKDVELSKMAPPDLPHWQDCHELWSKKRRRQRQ
T1 sequence (O75909 1-267 partner): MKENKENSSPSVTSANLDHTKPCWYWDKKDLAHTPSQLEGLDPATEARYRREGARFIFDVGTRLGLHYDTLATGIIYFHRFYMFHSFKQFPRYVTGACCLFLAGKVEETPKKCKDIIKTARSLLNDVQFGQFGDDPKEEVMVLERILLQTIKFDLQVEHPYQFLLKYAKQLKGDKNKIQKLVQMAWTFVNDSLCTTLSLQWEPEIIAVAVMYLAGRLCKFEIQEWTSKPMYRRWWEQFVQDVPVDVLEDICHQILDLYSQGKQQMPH
T1 sequence (Q16531 whole entry): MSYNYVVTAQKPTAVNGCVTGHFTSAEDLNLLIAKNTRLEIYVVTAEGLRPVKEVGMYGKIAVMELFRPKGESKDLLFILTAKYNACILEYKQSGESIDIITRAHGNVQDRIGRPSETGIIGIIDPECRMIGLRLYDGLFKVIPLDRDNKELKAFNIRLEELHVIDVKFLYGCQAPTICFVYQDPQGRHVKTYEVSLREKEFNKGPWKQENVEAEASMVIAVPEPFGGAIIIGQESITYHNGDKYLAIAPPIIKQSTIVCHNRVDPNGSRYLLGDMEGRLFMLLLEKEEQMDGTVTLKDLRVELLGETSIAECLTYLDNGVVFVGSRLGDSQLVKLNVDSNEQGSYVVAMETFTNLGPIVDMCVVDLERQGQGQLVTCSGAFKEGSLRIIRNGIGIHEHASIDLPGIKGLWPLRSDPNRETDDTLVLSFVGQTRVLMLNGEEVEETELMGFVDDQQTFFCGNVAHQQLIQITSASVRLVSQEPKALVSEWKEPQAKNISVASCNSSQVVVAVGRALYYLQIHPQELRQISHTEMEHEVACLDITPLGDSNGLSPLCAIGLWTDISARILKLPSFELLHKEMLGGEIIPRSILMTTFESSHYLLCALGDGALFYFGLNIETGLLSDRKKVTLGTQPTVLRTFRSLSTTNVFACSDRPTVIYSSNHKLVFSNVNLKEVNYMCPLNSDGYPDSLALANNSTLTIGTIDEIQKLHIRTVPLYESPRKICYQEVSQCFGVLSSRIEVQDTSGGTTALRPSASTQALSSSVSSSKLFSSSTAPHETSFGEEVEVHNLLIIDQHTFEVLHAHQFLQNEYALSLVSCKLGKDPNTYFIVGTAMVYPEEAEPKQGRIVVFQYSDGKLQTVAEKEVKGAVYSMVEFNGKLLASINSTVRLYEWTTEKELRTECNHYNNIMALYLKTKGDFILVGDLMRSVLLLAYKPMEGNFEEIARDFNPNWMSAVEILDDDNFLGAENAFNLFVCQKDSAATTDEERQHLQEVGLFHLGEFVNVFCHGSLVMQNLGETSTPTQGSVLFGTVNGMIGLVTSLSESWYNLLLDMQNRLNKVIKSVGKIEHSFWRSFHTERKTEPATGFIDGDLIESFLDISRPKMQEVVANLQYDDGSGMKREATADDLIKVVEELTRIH
Summary of the method: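 Background fluorescence is reduced by reading 70 μs after excitation, and complex formation is followed as the 520:490 nm fluorescence ratio.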

[2] = tested on: cyclin K–eGFP degradation reporter; test: Cyclin K reporter stability analysis (dual-color cyclin K–eGFP reporter); assay type: cell-based, human
Summary of the method: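 A 5 h treatment of HEK293T–Cas9 cells expressing the degradation reporter preceded flow cytometry; eGFP over mCherry, normalized to DMSO.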

[3] = tested on: HEK293T cells; test: Drug sensitivity assay (CellTiter-Glo viability) with or without MLN4924 pretreatment; assay type: cell-based, human; settings: for Toxicity rescue / EC50: Supplementary Table 2; for Toxicity rescue: MLN4924-mediated cytotoxicity rescue, 10 µM used where n.d.; for EC50: Homo sapiens, HEK-293T, HEK293T viability, 72 h, compound alone, read-out: Cellular assays EC50
Summary of the method: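 First, cells (HEK293T–Cas9, 0.15 × 10^6 ml^−1) are exposed to DMSO or 100 nM MLN4924. Next, drugs follow at 2 h. Finally, CellTiter-Glo is read at day 3 and normalised to DMSO.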

[4] = compound concentration 4.68 nM, raw replicate titration data
[5] = compound concentration 21.6 nM, raw replicate titration data
[6] = compound concentration 36 nM, raw replicate titration data
[7] = compound concentration 79.2001 nM, raw replicate titration data
[8] = compound concentration 158.4 nM, raw replicate titration data
[9] = compound concentration 309.6 nM, raw replicate titration data
[10] = compound concentration 626.401 nM, raw replicate titration data
[11] = compound concentration 1252.8 nM, raw replicate titration data
[12] = compound concentration 2448 nM, raw replicate titration data
[13] = compound concentration 9936.01 nM, raw replicate titration data
[14] = compound concentration 20016 nM, raw replicate titration data
[15] = Supplementary Table 2; HEK293T cycK-eGFP reporter, 5 h; read-out: Cellular assays DC50

SMILES: CCc1cnn2c(NCc3ccc[n+]([O-])c3)cc(N3CCCC[C@H]3CCO)nc12 [Dinaciclib]
- TR-FRET signal at compound concentration 0.468 nM ([1]; compound concentration 0.468 nM, raw replicate titration data): 0.1026 and 0.1033
- TR-FRET signal at compound concentration 2.16 nM ([1]; compound concentration 2.16 nM, raw replicate titration data): 0.1211 and 0.1202
- TR-FRET signal at compound concentration 3.6 nM ([1]; compound concentration 3.6 nM, raw replicate titration data): 0.158 and 0.1569
- TR-FRET signal at compound concentration 4.68 nM [1, 4]: 0.141 and 0.164
- TR-FRET signal at compound concentration 7.92001 nM ([1]; compound concentration 7.92001 nM, raw replicate titration data): 0.229 and 0.2182
- TR-FRET signal at compound concentration 15.84 nM ([1]; compound concentration 15.84 nM, raw replicate titration data): 0.3288 and 0.3136
- TR-FRET signal at compound concentration 21.6 nM [1, 5]: 0.2804 and 0.3137
- TR-FRET signal at compound concentration 30.96 nM ([1]; compound concentration 30.96 nM, raw replicate titration data): 0.3522 and 0.3143
- TR-FRET signal at compound concentration 36 nM [1, 6]: 0.3155 and 0.3474
- TR-FRET signal at compound concentration 62.6401 nM ([1]; compound concentration 62.6401 nM, raw replicate titration data): 0.2879 and 0.2897
- TR-FRET signal at compound concentration 79.2001 nM [1, 7]: 0.2612 and 0.2943
- TR-FRET signal at compound concentration 125.28 nM ([1]; compound concentration 125.28 nM, raw replicate titration data): 0.2755 and 0.2904
- TR-FRET signal at compound concentration 158.4 nM [1, 8]: 0.2643 and 0.2881
- TR-FRET signal at compound concentration 244.8 nM ([1]; compound concentration 244.8 nM, raw replicate titration data): 0.2809 and 0.2743
- TR-FRET signal at compound concentration 309.6 nM [1, 9]: 0.2462 and 0.2819
- TR-FRET signal at compound concentration 626.401 nM [1, 10]: 0.2417 and 0.2805
- TR-FRET signal at compound concentration 993.601 nM ([1]; compound concentration 993.601 nM, raw replicate titration data): 0.2627 and 0.2615
- TR-FRET signal at compound concentration 1252.8 nM [1, 11]: 0.2431 and 0.2774
- TR-FRET signal at compound concentration 2001.6 nM ([1]; compound concentration 2001.6 nM, raw replicate titration data): 0.2535 and 0.232
- TR-FRET signal at compound concentration 2448 nM [1, 12]: 0.2678 and 0.2721
- TR-FRET signal at compound concentration 9936.01 nM [1, 13]: 0.2509 and 0.2771
- TR-FRET signal at compound concentration 20016 nM [1, 14]: 0.2402 and 0.253
- reporter assay signal (normalized) ([2]; 5 nM; replicates): 0.9772 and 0.948
- reporter assay signal (normalized) ([2]; 10.7 nM; replicates): 0.9389 and 0.9407
- reporter assay signal (normalized) ([2]; 22.9 nM; replicates): 0.9927 and 0.9745
- reporter assay signal (normalized) ([2]; 48.9 nM; replicates): 0.9927 and 0.9772
- reporter assay signal (normalized) ([2]; 105 nM; replicates): 0.9863 and 0.9964
- reporter assay signal (normalized) ([2]; 224 nM; replicates): 1.014 and 1.0155
- reporter assay signal (normalized) ([2]; 478 nM; replicates): 0.99 and 1.01
- reporter assay signal (normalized) ([2]; 2190 nM; replicates): 0.9881 and 0.9945
- reporter assay signal (normalized) ([2]; 4680 nM; replicates): 1.022 and 0.99
- reporter assay signal (normalized) ([2]; 10000 nM; replicates): 1.044 and 1.03
- cyclin K reporter degradation, result in words ([2]; HEK293T): non-degrading
- DC50 ([2]; read-out: Cellular assays DC50; Supplementary Table 2; HEK293T cycK-eGFP reporter, 5 h): > 10000 nM
- viability assay signal (normalized) ([3]; 5 nM, + MLN4924): 0.8664 and 0.8028
- viability assay signal (normalized) ([3]; 5 nM, without MLN4924): 0.9657 and 1.0645
- viability assay signal (normalized) ([3]; 10.7 nM, + MLN4924): 0.7659 and 0.6765
- viability assay signal (normalized) ([3]; 10.7 nM, without MLN4924): 0.9934 and 0.9758
- viability assay signal (normalized) ([3]; 22.9 nM, + MLN4924): 0.3817 and 0.3517
- viability assay signal (normalized) ([3]; 22.9 nM, without MLN4924): 0.3511 and 0.381
- viability assay signal (normalized) ([3]; 48.9 nM, + MLN4924): 0.2784 and 0.2759
- viability assay signal (normalized) ([3]; 48.9 nM, without MLN4924): 0.2851 and 0.2898
- viability assay signal (normalized) ([3]; 105 nM, + MLN4924): 0.2848 and 0.2647
- viability assay signal (normalized) ([3]; 105 nM, without MLN4924): 0.2976 and 0.3085
- viability assay signal (normalized) ([3]; 224 nM, + MLN4924): 0.2797 and 0.277
- viability assay signal (normalized) ([3]; 224 nM, without MLN4924): 0.291 and 0.2867
- viability assay signal (normalized) ([3]; 478 nM, + MLN4924): 0.2746 and 0.2757
- viability assay signal (normalized) ([3]; 478 nM, without MLN4924): 0.3016 and 0.2883
- viability assay signal (normalized) ([3]; 2190 nM, + MLN4924): 0.2646 and 0.2589
- viability assay signal (normalized) ([3]; 2190 nM, without MLN4924): 0.2893 and 0.2745
- viability assay signal (normalized) ([3]; 4680 nM, + MLN4924): 0.2516 and 0.2662
- viability assay signal (normalized) ([3]; 4680 nM, without MLN4924): 0.2682 and 0.2734
- viability assay signal (normalized) ([3]; 10000 nM, + MLN4924): 0.2413 and 0.2482
- viability assay signal (normalized) ([3]; 10000 nM, without MLN4924): 0.239 and 0.2604
- Toxicity rescue [3]: -12%

SMILES: CN1CC[C@H](c2c(O)cc(O)c3c(=O)cc(-c4ccccc4Cl)oc23)[C@H](O)C1 [Flavopiridol, reference compound]
- TR-FRET signal at compound concentration 4.68 nM [1, 4]: 0.2594 and 0.2805 and 0.1719 and 0.175
- TR-FRET signal at compound concentration 21.6 nM [1, 5]: 0.4135 and 0.429 and 0.2939 and 0.3262
- TR-FRET signal at compound concentration 36 nM [1, 6]: 0.6079 and 0.623 and 0.4905 and 0.5031
- TR-FRET signal at compound concentration 79.2001 nM [1, 7]: 0.8256 and 0.8685 and 0.6858 and 0.596
- TR-FRET signal at compound concentration 158.4 nM [1, 8]: 0.9273 and 1.013 and 0.793 and 0.779
- TR-FRET signal at compound concentration 309.6 nM [1, 9]: 0.9662 and 1.065 and 0.8707 and 0.8846
- TR-FRET signal at compound concentration 626.401 nM [1, 10]: 1.035 and 1.155 and 0.9082 and 0.902
- TR-FRET signal at compound concentration 1252.8 nM [1, 11]: 1.099 and 1.27 and 0.978 and 0.9866
- TR-FRET signal at compound concentration 2448 nM [1, 12]: 1.138 and 1.2612 and 0.9975 and 0.9532
- TR-FRET signal at compound concentration 9936.01 nM [1, 13]: 1.131 and 1.306 and 0.9937 and 0.9375
- TR-FRET signal at compound concentration 20016 nM [1, 14]: 1.0554 and 1.222 and 0.9378 and 0.9067
- DC50 [2, 15]: > 10000 nM
- EC50 [3]: 395 nM
- Toxicity rescue [3]: 1%

SMILES: COC[C@@H](C)N[C@H]1CC[C@H](Nc2cc(-c3cccc(NCC4(C#N)CCOCC4)n3)c(Cl)cn2)CC1 [NVP-2, reference compound]
- TR-FRET signal at compound concentration 4.68 nM [1, 4]: 0.1362 and 0.1646
- TR-FRET signal at compound concentration 21.6 nM [1, 5]: 0.1797 and 0.2051
- TR-FRET signal at compound concentration 36 nM [1, 6]: 0.2299 and 0.264
- TR-FRET signal at compound concentration 79.2001 nM [1, 7]: 0.275 and 0.3223
- TR-FRET signal at compound concentration 158.4 nM [1, 8]: 0.3283 and 0.3614
- TR-FRET signal at compound concentration 309.6 nM [1, 9]: 0.3492 and 0.3941
- TR-FRET signal at compound concentration 626.401 nM [1, 10]: 0.3927 and 0.4325
- TR-FRET signal at compound concentration 1252.8 nM [1, 11]: 0.4009 and 0.4489
- TR-FRET signal at compound concentration 2448 nM [1, 12]: 0.4033 and 0.4482
- TR-FRET signal at compound concentration 9936.01 nM [1, 13]: 0.3857 and 0.4199
- TR-FRET signal at compound concentration 20016 nM [1, 14]: 0.3623 and 0.3979
- EC50 ([1]; in vitro complex formation, 50 nM CDK12–cyclin K, 100 nM DDB1, text and figures, read-out: TR-FRET EC50): 62 ± 13 nM
- DC50 [2, 15]: > 10000 nM
- EC50 [3]: 23 nM
- Toxicity rescue [3]: -22%

SMILES: CC(C)(C)c1cnc(CSc2cnc(NC(=O)C3CCNCC3)s2)o1 [SNS032, reference compound]
- TR-FRET signal ([1]; compound concentration 4.68 nM): 0.1508 and 0.1736
- TR-FRET signal ([1]; compound concentration 21.6 nM): 0.2014 and 0.2318
- TR-FRET signal ([1]; compound concentration 36 nM): 0.2617 and 0.2904
- TR-FRET signal ([1]; compound concentration 79.2001 nM): 0.3013 and 0.3457
- TR-FRET signal ([1]; compound concentration 158.4 nM): 0.3207 and 0.3602
- TR-FRET signal ([1]; compound concentration 309.6 nM): 0.329 and 0.3662
- TR-FRET signal ([1]; compound concentration 626.401 nM): 0.3309 and 0.3799
- TR-FRET signal ([1]; compound concentration 1252.8 nM): 0.346 and 0.4035
- TR-FRET signal ([1]; compound concentration 2448 nM): 0.3618 and 0.4046
- TR-FRET signal ([1]; compound concentration 9936.01 nM): 0.3822 and 0.42
- TR-FRET signal ([1]; compound concentration 20016 nM): 0.3638 and 0.4143
- DDB1–CDK12 complex formation, result in words ([1]; in vitro TR-FRET): no gain-of-function activity
- DC50 [2, 15]: > 10000 nM
- EC50 [3]: 265 nM
- % MLN4924 rescue ([3]; PCA input): 0%
- Toxicity rescue [3]: -22%
